Data published in patent US7855290B2, “Pyridine derivatives and pyrimidine derivatives (3)” (Eisai R&D Management Co., Ltd., priority 2005, dated 2010).

Tests used:
[1] = tested on: Human umbilical vein endothelial cells (HUVECs); assay: Inhibitory activity against the growth of vascular endothelial cells stimulated with hepatocyte growth factor; format: cell-based; conditions: HUVEC, HGF stimulated, third day, Cell Counting Kit-8, read-out: IC50 (cell proliferation activity)
Method: Human umbilical vein endothelial cells (HUVECs) were isolated according to the reported method (Shin Seikagaku Jikken Koza, “Cell culturing techniques”, p 197-202), and then cultured in a 5% CO2 incubator (37° C.) using EGM-2 medium (purchased from Clonetics) until the cells reached confluency.
HUVECs were suspended in a serum-free medium for endothelial cell culture (SFM, purchased from GIBCO RBL) containing 2% FBS. The cell suspension (2×10^4 cells/ml) was put in a cell culturing 96-well plate (purchased from NUNC, Production No. 167008) at 0.1 ml/well, and then cultured in a 5% CO2 incubator (37° C.) overnight. After the culture, each well was supplied with 50 μl of the test substance diluted with a 2% FBS-containing serum-free medium for endothelial cell culture and 50 μl of HGF (purchased from R&D) diluted at a concentration of 120 ng/ml with a 2% FBS-containing serum-free medium for endothelial cell culture, followed by culturing in a 5% CO2 incubator (37° C.). On the third day after the addition of the test substance, each well was supplied with 10 μl of Cell Counting Kit-8 (purchased from DOJINDO, Production No. 343-07623), and then the plate was incubated in a 5% CO2 incubator (37° C.) for about 2 hours. After the incubation, using a Plate Reader MTP-500 (Corona Electric), the absorbance of each well was determined at a measurement wavelength of 450 nm and a reference wavelength of 660 nm. While defining the absorbance of a well supplied with HGF and no test substance as 100% cell proliferation activity and the absorbance of the well supplied with no test substance and no HGF as 0% cell proliferation activity, the cell proliferation activity ratio (%) was calculated for each cell.

[2] = tested on: Human gastric cancer cells (MKN-45); assay: Inhibitory activity against the proliferation of human gastric cancer cells (MKN-45); format: cell-based; conditions: 72 h, MKN-45, 1% FBS RPMI1640, 3 days, Cell Counting Kit-8
Method: Human gastric cancer cells (MKN-45) were suspended in a 1% FBS-containing RPMI1640 medium (purchased from Sigma). The cell suspension (1×10^4 cells/ml) was added in a 96-well plate for cell culture (purchased from NUNC, Production No. 167008) at 0.1 ml/well, and then cultured in a 5% CO2 incubator (37° C.) overnight. After the culture, each well was supplied with 0.1 ml of a test substance diluted with a 1% FBS-containing RPMI1640 medium, followed by culturing in a 5% CO2 incubator (37° C.) for 3 days. After the culture, each well was supplied with 10 μl of Cell Counting Kit-8 (purchased from DOJINDO, Production No. 343-07623), followed by incubation in a 5% CO2 incubator (37° C.) for about 1.5 hrs. After the incubation, using the Plate Reader MTP-500 (Corona Electric), the absorbance of each well was determined at a measurement wavelength of 450 nm and a reference wavelength of 660 nm.

Structure (SMILES): CN1CCN(C2CCN(C(=O)Nc3cc(Oc4ccc(NC(=O)C5(C(=O)Nc6ccc(F)cc6)CC5)c(F)c4)ccn3)CC2)CC1 [Example 15, N-(2-Fluoro-4-{[2-({[4-(4-methylpiperazin-1-yl)piperidin-1-yl]carbonyl}amino)pyridin-4-yl]oxy}phenyl)-N′-(4-fluorophenyl)cyclopropane-1,1-dicarboxamide]
- IC50 [1]: 15 nM
- IC50 [2]: 17 nM
